The source of these data is patent US5661185A, “Melatonergic agents” (Bristol-Myers Squibb Co., priority 1995, dated 1997).

The subject of assay [1] is forskolin-stimulated accumulation of cAMP. In words: Cyclic AMP accumulation in intact cells (block of forskolin-stimulated accumulation of cAMP). As to conditions: for EC50: 10 min, 37° C.; for Emax: relative to melatonin, read-out: I.A. (Intrinsic Activity) = Emax (experimental compound)/Emax (melatonin). In kind it is cell-based. The source says: Further, the compounds are agonists as determined by their ability, like melatonin, to block the forskolin-stimulated accumulation of cAMP in certain cells.
Measurement of Functional Activity
Cyclic AMP Accumalation in Intact Cells: Melatonin
Remove media from cell flask and wash with Hank's salt solution or PBS as appropriate. Detach cells from flask using whatever means are used when splitting. Add enough media so that the concentration of cells is 4×10^5 /ml when counted with a hemocytometer (40 cells in the center square). This concentration of cells can Vary depending on the ultimate cAMP response of the type of cells used. Also, dialyzed fetal bovine serum (FBS) or heat inactivated FBS should be used in the-media when plating the cells in case endogenous substances are present in the FBS that might interfere with the test. Add 1 ml of cell suspension to each well (4×10^5 cells/well), then 2 mls of media and incubate cells overnight.
SOLUTIONS needed for cyclase:
1. Stock solution: plain media (no serum or additives) +20mM HEPES. (500 ml bottle media+10 mls of 1M HEPES GIBCO stock). This solution can be refrigerated and reused.
2. IBMX solution: media/HEPES+1 mM IBMX. (50 mls+11.1 mg IBMX, IBMX mw=222.2). This solution can be refrozen.
3. Assay solution: 90% stock solution+10% IBMX solution. Figure out the volume of solution needed for the assay. Each well gets 3 mls of assay solution for a preincubation and 3 mls for the actual assay, therefore, 6 mls/well. Each test condition is done in triplicate.
a) Basal 7 mls assay solution +[…]
b) Forskolin Stimulation: […]: 7 mls assay solution +[…] (stock solution in freezer, in DMSO)
c) Forskolin+competitor (melatonin): […]: 7 mls assay solution +[…]+desired concentration of competitor (melatonin). Solutions b) and c) can be combined when adding forskolin, then split before adding competitor.
All solutions should be warmed to 37° C. All test conditions are done in triplicate. Plates with cells are kept in a shallow 37° C. water bath throughout the reaction. Remove media from the wells and add 3 ml of preincubation media. After 10 min, remove that solution and add 3 mls of drug solution. After 10 min the media is removed and reaction stopped with 1 ml 0.1N HCl. Staggering the incubation is recommended. The preincubation step can be eliminated if the cells don't adhere well to the plate or the plates can be pretreated with extracellular matrix such as poly-D-lysine. Let samples set for at least an hour at room temperature. Remove 1 ml from dish and put into a microfuge tube. Do a 3 min spin to remove floating cells. Dilute 1:100 for RIA (this dilution will vary depending on the concentration curve of the RIA kit and the cAMP response and concentration of the cells). Do radioimmunoassay (Amersham: Cat.no. RPA.509).

Assay [2] deals with [^125 I]-2-iodomelatonin binding. Particulars: comparative study; Copinga et al, J.Med. Chem., 1993, 36, 2891; cited from earlier work.
Another assay has as its system rats. Particulars: exogenous melatonin administration, Cassone, et al., 1986; cited from earlier work.

Usually EC50 stands for the concentration giving half of the maximal effect. A higher EC50 goes with weaker potency. As to `COc1cc(CCCNC(=O)C2CC2)ccc1Cl` [Example 30, N-[3-(4-Chloro-3-methoxyphenyl)propyl]-cyclopropane carboxamide], in assay [1], a half-maximal effect (EC50) was put at 3.4 nM and the Emax amounted to 98%.
For `COc1cccc(CCNC(C)=O)c1` [compound 10], in assay [2], the “[125I]-2-iodomelatonin binding properties, in words” value is “markedly inferior”.
Regarding `COc1ccc2[nH]cc(CCNC(C)=O)c2c1` [melatonin, N-acetyl-5-methoxytryptamine], the “synchronization of circadian rhythms” value with rats is “found to synchronize circadian rhythms in rats”.
Take `COc1ccc(F)c(/C=C\CNC(=O)C(C)C)c1` [Example 7, cis-N-[3-(2-Fluoro-5-methoxyphenyl)-2-propenyl]-2-methylpropanamide]: in assay [1], the midpoint of the response, the EC50, lay at 120 nM and the Emax turned out to be 120%.
Regarding `CCCC(=O)NCCCc1cccc(OC)c1` [Example 2, N-[3-(3-Methoxyphenyl)propyl]butanamide], in assay [1], the EC50 worked out at 4.9 nM and the Emax was determined as 95%.
